Ends that are not written are not given here.
Tests used:
[1] = target: T1, HEK-293T cells co-expressing D1 and D2 receptors (Homo sapiens, UniProt P14416+P21728); experiment: Fluo-4AM fluorescence measurement of intracellular Ca^2+ in HEK-293T cells co-expressing D1 and D2 receptors; assay type: cell-based; details: pretreatment 10 μM
T1 construct: expressed in transfected cells; host or cells: HEK-293T
Text: Fluorescence values were monitored using a PerkinElmer multiwell plated fluorometer, collected at 3-s intervals for 150 s. (A.F.U.: arbitrary fluorescence units).
To investigate the functional implication of the D1-D2 coupling, we examined the ability of this complex to promote Gq/11 signaling as indexed by changes in intracellular Ca^2+ levels^83-85.

D2 receptors = details: rat, in vivo
D1R = experiment: Western blot of D1R levels in striata of chronically treated rats; assay type: in vivo; details: rat striata; 10 mg/kg/day subcutaneously for 14 days
D2R = experiment: Western blot of D2R levels in striata of chronically treated rats; assay type: in vivo; details: rat striata; 10 mg/kg/day subcutaneously for 14 days
D1-D2 coupling = details: rat, in vivo, sc, 10 mg/kg/day
D1 receptors = target: T2, D1 receptors (Rattus norvegicus, UniProt P18901); experiment: GST-fusion protein affinity pull-down of D1 receptor from solubilized rat striatum; assay type: binding; details: FIG. 1C-1E
T2 construct: D1 receptor was specifically pulled down by GST-D2IL3-L in detergent extracts of rat striatum; from tissue; host or cells: rat striatum, detergent-solubilized
Text: (§1) To confirm previous reports of a D1-D2 receptor complex we used rat striata in co-immunoprecipitation (co-IP) experiments. […] In an attempt to define the structural basis for the observed D1-D2 coupling, we carried out affinity purification using GST (glutathione-S-transferase)-fusion proteins encoding the D1CT and the third intracellular loop (D1IL3), since both D1CT: A332-T446 and D1IL3: R219-K272 contain putative consensus sequences for receptor phosphorylation, desensitization and potential binding sites for various proteins important for signalling (e.g. G proteins, NMDA receptor NR1, NR2A subunits)^81-82. […] To locate the interacting site on D2R, GST-fusion proteins encoding IL3 from both the D2 short (D2S) and D2 Long (D2L) (GST-D2IL3-L: K211-Q373, GST-D2IL3-S:K211-[…]) were used in affinity purification assays. […] Since the D2L and D2S are differentiated by the additional 29 amino-acid within the third intracellular loop, the fact that only D2L but not D2S interacts with D1R made us suspect that this specific 29 amino-acid may contain the D1-D2 interacting site.

D1 tail = target: T3, D1 tail (Homo sapiens, UniProt P21728); experiment: in vitro binding assay with S^35-D1 tail probe; details: FIG. 1F
T3 construct: D1CT A332-T446
T3 sequence (P21728 332-446): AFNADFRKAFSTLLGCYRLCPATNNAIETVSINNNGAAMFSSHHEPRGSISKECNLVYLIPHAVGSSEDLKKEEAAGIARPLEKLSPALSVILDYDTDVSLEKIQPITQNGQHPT
Text: as §1

D1-D2 interaction = target: T4, D1-D2 interaction (Rattus norvegicus, UniProt P18901); experiment: competitive co-immunoprecipitation of D1 receptor with D2 receptor in rat striatum; assay type: binding; details: preincubation, FIG. 1G
T4 construct: from tissue; host or cells: rat striatum
Text: The ability of D1 receptor to co-immunoprecipitate with D2 receptor is inhibited by the addition of GST-D2IL3-29-2 in a concentration dependent manner;
as §1

T2 sequence (P18901 whole entry, the tested form may be a part): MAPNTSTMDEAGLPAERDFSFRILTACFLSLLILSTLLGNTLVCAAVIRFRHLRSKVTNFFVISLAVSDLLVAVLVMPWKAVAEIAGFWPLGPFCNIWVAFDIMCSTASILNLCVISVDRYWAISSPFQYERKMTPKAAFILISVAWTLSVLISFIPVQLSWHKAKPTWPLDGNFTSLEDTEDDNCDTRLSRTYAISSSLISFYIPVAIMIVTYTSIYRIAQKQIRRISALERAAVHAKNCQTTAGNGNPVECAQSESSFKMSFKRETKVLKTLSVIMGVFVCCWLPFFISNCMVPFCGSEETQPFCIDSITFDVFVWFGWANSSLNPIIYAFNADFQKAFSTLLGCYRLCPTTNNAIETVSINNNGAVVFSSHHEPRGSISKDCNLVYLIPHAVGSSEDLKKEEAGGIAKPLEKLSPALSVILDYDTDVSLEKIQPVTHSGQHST
T1 sequence (P21728 whole entry): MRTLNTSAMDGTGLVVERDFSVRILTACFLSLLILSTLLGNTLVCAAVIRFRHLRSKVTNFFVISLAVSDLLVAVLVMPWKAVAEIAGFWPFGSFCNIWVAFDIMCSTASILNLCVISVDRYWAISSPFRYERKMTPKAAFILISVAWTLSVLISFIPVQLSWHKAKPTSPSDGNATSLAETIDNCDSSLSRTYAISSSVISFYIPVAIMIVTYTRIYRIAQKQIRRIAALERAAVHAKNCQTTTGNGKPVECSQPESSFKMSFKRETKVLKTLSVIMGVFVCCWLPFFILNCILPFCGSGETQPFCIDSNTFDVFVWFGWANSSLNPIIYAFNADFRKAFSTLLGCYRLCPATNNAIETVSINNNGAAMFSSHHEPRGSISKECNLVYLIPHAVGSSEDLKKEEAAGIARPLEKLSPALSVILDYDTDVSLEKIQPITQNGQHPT
T1 sequence (P14416 whole entry): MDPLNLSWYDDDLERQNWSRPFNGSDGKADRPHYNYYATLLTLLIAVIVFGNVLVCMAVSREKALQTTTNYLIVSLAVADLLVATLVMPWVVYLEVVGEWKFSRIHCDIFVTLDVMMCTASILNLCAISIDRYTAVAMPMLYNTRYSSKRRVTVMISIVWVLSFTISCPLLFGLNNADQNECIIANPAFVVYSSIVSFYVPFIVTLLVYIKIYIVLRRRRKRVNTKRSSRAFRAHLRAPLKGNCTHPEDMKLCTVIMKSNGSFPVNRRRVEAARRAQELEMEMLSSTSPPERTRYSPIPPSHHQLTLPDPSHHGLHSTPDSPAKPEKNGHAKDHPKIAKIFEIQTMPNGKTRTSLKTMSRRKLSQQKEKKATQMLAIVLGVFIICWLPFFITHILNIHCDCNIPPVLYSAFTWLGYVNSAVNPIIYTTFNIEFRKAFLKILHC
T4 sequence (P18901 whole entry): as the sequence (P18901 whole entry, the tested form may be a part) above

block of the Ca^2+ increase induced by co-activation with 10 μM SKF81297 and 10 μM quinpirole [1]	pull-down of D1 receptors (D1 receptors)	binding of S^35-D1 tail probe (D1 tail)	Molecule	other results
inhibited the increase in Ca^2+ levels			COc1ccc2c(c1)CC[C@@H]1[C@@H]2CC[C@]2(C)[C@@H](NCCCCCCN3C(=O)C=CC3=O)CC[C@@H]12 [U73122]	
			O=C(CCCN1CCC(O)(c2ccc(Cl)cc2)CC1)c1ccc(F)cc1 [haloperidol]	direct immunoprecipitated D2 receptors (D2 receptors): remain unchanged
			CN(C)CCCN1c2ccccc2CCc2ccccc21 [imipramine]	D1R levels (Western blot) vs control rats (D1R): no significant change; D2R levels (Western blot) vs control rats (D2R): no significant change; D1-D2 coupling (co-immunoprecipitation) (D1-D2 coupling): decrease in D1-D2 coupling
blocked			CCN1CCC[C@H]1CNC(=O)c1c(O)c(Cl)cc(Cl)c1OC [raclopride]	
	not	not	GST-D2LIL3-29-1: GST-fusion protein encoding D2LIL3-29-1: G242-V255 (GNCTHPEDMKLCTV; cysteine pairing not given here; also: GST fusion protein)	
	can successfully pull-down D1R	specifically bound	GST-D2LIL3-29-2: GST-fusion protein encoding D2LIL3-29-2: I256-V270 (IMKSNGSFPVNRRRV; also: GST fusion protein)	inhibition of D1-D2 interaction as indexed by co-immunoprecipitation (D1-D2 interaction): inhibits the D1-D2 interaction as indexed by the co-immunoprecipitation in a concentration dependent manner
